From patent US20160075689A1, “POLYMERASE, ENDONUCLEASE, AND HELICASE INHIBITORS AND METHODS OF USING THEREOF” (THE BOARD OF TRUSTEES OF THE UNIVERSITY OF ARKANSAS, priority 2013, published 2016) come the findings set out here.

Test [1] has as its target T1, hpol η (Homo sapiens, UniProt Q9Y253).
T1 construct: human DNA polymerases η (amino acids 1-437); 6x-histidine (N, cleaved yes); GST (N, cleaved yes); made in house; host or cells: Escherichia coli BL21 (DE3)
T1 sequence (Q9Y253 1-437): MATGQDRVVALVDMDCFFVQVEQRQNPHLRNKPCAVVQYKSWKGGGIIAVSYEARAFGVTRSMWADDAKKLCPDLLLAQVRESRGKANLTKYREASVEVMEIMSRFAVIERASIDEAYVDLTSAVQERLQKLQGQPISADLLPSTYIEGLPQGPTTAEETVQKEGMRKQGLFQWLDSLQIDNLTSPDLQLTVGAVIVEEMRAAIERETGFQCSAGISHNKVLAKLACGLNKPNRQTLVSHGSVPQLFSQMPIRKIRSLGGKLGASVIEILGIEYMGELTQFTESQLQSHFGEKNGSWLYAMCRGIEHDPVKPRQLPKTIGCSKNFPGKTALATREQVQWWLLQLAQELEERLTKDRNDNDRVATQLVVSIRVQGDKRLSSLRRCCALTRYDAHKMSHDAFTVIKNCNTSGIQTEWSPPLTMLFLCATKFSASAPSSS
The experiment in a line: Fluorescence-based DNA polymerase strand-displacement assay. The class given is biochemical. From the text: A library of 320 compounds targeted against nucleic acid interacting proteins was screened for inhibition of polymerase activity using an assay that monitors fluorescence from a 5-carboxytetramethylrhodamine (TAMRA) labeled oligonucleotide. In order to prepare the DNA for the experiment, a TAMRA-labeled reporter (or displaced) strand (SEQ ID NO. 4: 5′-TTT TTT TTG C-TAMRA-3′) and unlabeled primer strand (SEQ ID NO. 5: 5′-TCA CCC TCGTAC GAC TCT T-3′) were annealed to a Black Hole Quencher (BHQ)-labeled template strand (SEQ ID NO. 6: 5′BHQ2-GCAAAAAAAAAA GAG TCG TAC GAG GGT GA-3′) in a solution containing 10 mM Tris (pH 8.0), 50 mM NaCl, 2 mM MgCl2, and dH2O. The template (T), primer (P) and displaced strand (D) oligonucleotides were mixed in a 1:1.5:1.5 (T:P:D) molar ratio for annealing. After an incubation period of three minutes at 95° C., the DNA was allowed to slowly cool to room temperature overnight.
The fluorescence-based assay used to screen for polymerase inhibitors measures polymerase-catalyzed displacement of a TAMRA-labeled oligonucleotide (FIG. 1). For the initial screen, the experimental setup included 50 nM hpol η), 50 nM DNA, 6 μM compound, 100 μM dTTP and 1 mM MgCl2. The reactions were performed in 50 mM Tris (pH 8.0) buffer containing 40 mM NaCl, 2 mM dithiothreitol, and 0.01% (v/v) Tween-20. The concentration of dimethyl sulfoxide (DMSO) was 3.5% (v/v) for the initial screen. The enzyme, the compounds (including a DMSO control) and dTTP were combined with the reaction buffer in individual wells of each half-plate and allowed to incubate for 5-10 minutes. The DNA substrate was subsequently added to initiate the reaction and the plate was read immediately using a BioTek SynergyH4 plate reader (λex=525 nm, λem=598 run). The final reaction volume was 200 μL. Fluorescence was monitored for 90 minutes for most reactions. The initial portion of the velocity curve was analyzed by linear regression to calculate an observed rate of product formation. For each data set, eight DMSO control experiments were averaged to obtain our measure of 100% activity. Rates of product formation in the presence of each compound were then divided by the rate of the DMSO control to produce a relative measure of polymerase activity (0 to 1, with 1 being no inhibition).
(§1) In order to determine the IC50 value for each enzyme, the fluorescence-based polymerase assay was repeated with increasing concentrations of inhibitor. The conditions varied slightly for each enzyme. With the exception of hpol ι, all IC50 experiments were performed in 50 mM Tris HCl (pH 8.0) buffer containing 1 mM MgCl2, 0.1 mM dTTP, 40 mM NaCl, 2 mM DTT, 0.01% (v/v) Tween-20 and 10% (v/v) DMSO. For experiments with hpol ι, KCl was substituted for NaCl and 0.25 mM MnCl2 was substituted for MgCl2. The concentration of inhibitor was 0, 1, 5, 10, 20, 30, 50, 75 and 100 μM. The enzyme and DNA concentrations were as follows: 10 nM hpol η, 50 nM DNA; 3 nM hpol κ, 60 nM DNA; 50 nM hpol ι, 50 nM DNA; 10 nM Dpo4, 50 nM DNA; 100 nM Dpo1, 50 nM DNA; 50 nM hpol β, 50 nM DNA; 50 nM HIV-1 RT, 50 nM DNA. The percent activity was plotted as a function of the log of inhibitor concentration and fit to a four-parameter logistic model (equation 1) using Prism software (Graph Pad, San Diego, Calif.): […]

In test [2] the target is T1, hpol η. The test is described as follows: Gel-based polymerase extension assay. In kind it is biochemical. Particulars: 6 μM, 13 μM and 60 μM. The protocol:
In order to provide a second measure of enzyme inhibition, polymerase extension assays were performed. Briefly, hpol η (2 nM) was pre-incubated with FAM-13/18-mer primer-template DNA ([…]) and either DMSO (final concentration=10%) or compound (6 μM, 13 μM and 60 μM; maintaining 10% DMSO for all experiments). Polymerase catalysis was initiated by the addition of dNTP (1 mM) and MgCl2 (5 mM). The reaction was allowed to proceed at 37° C. for varying times and then terminated by the addition of 5 μL aliquots of the reaction mix to 25 μL of the quench solution (20 mM EDTA, 95% (v/v) formamide and 0.1% (w/v) bromophenol blue). The samples were separated using a 16% polyacrylamide/7M urea gel and the products analyzed using a Typhoon imager and ImageQuant™ software (GE Healthcare Life Sciences).

The target in a further test is T2, hpol β (Homo sapiens, UniProt P06746).
T2 construct: purchased Enzymax (Lexington, Ky.)
The experiment in a line: Fluorescence-based polymerase assay, IC50. In kind it is biochemical. The protocol: as §1

A further test concerns the target T3, Dpo1 (Saccharolobus solfataricus, UniProt P26811).
T3 construct: made in house
The test is described as follows: Fluorescence-based polymerase assay, IC50. In kind it is biochemical, Sulfolobus solfataricus. How it is done:
as §1

For test [3], the target named is T1, hpol η. The test is described as follows: Steady-state kinetic analysis of DNA polymerase activity. The class given is biochemical. As to conditions: for kcat: varying dTTP. How it is done:
The steady-state kinetic parameters defining polymerase activity in the presence of inhibitor were determined using the fluorescence-based reporter assay. Hpol q activity was monitored in the presence of increasing concentrations of dTTP (1, 5, 10, 20, 30, 50, 75, and 100 μM). The measured relative fluorescence units (RFUs) were converted to a nanomolar quantity by calculating the total change in fluorescence observed between the start of the reaction and the time point at which the fluorescence change was maximal, and considering that change to be 100% of substrate converted to product. The percentage of substrate converted to product was multiplied by the concentration of dsDNA in the reaction mixture. Product formation was then plotted as a function of time, and by considering only the linear portion of each curve, velocities were calculated for each dTTP concentration. These were then plotted as a function of dTTP concentration, and fit to a hyperbola. After correcting for enzyme concentration, the steady-state kinetic parameters were obtained as described previously. The experiments were then repeated in the presence of inhibitor (10, 20 and 40 μM) to determine the effect of the small-molecule upon Michaelis-Menten kinetics.
Next, the mechanism of polymerase inhibition by ITBA-3 was investigated. The Michaelis-Menten kinetic parameters describing hpol η activity were measured in the presence of increasing concentrations of inhibitor. By varying the concentration of dTTP in the reaction mixture, the turnover number (kcat) and Michaelis constant (Km,dTTP) for hpol η were determined in the absence of inhibitor and at three concentrations of ITBA-3 (Table 3).

Each structure is given as a SMILES string. Bounds are passed on as bounds.

T3 sequence (P26811 whole entry): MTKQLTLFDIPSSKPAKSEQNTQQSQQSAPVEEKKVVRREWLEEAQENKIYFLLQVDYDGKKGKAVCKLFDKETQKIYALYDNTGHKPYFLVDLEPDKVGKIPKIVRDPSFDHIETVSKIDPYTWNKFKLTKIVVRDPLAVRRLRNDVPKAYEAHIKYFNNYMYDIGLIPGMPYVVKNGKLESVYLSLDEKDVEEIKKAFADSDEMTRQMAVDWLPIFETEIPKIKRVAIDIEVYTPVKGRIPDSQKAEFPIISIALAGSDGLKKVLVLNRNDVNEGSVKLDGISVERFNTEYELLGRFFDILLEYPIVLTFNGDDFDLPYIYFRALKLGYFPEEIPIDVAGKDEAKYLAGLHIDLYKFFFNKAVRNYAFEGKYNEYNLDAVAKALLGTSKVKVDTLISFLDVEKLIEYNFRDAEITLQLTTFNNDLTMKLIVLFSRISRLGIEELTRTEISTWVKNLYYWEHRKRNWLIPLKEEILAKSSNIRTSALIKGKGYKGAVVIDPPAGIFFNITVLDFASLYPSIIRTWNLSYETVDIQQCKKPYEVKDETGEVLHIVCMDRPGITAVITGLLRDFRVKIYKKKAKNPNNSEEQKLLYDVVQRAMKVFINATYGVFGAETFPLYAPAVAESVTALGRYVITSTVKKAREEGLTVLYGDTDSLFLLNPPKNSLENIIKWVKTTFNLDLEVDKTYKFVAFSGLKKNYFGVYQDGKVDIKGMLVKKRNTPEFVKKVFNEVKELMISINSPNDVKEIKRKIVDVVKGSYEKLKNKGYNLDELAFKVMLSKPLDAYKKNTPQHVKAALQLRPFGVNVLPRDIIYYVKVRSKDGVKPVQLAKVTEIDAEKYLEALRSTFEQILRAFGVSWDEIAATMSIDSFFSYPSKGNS

In general, IC50 refers to the concentration at which inhibition is half-maximal. A word on the kcat: it is the maximal rate divided by the concentration of active sites. As for `O=C1NC(=S)NC(=O)C1=Cc1cn(C(=O)c2ccccc2Br)c2ccc(Cl)cc12` [ITBA-3, 5-((1-(2-bromobenzoyl)-5-chloro-1H-indol-3-yl)methylene)-2-thioxodihydropyimidine-4,6-(1H,5H)-dione], the concentration for half-maximal inhibition (IC50) at hpol η [1] (10 nM hpol η, 50 nM DNA, mean ± standard deviation of three data sets, read-out: IC50 for inhibition of hpol η) was 29.8 ± 2.7 µM; on hpol β, less than 50 µM; against Dpo1, approximately 80 µM. Moreover, on hpol η [1] (6 μM, 13 μM and 20 μM), the “polymerase activity at increasing concentrations of inhibitor, fluorescence assay” value is “dose-dependent decrease in polymerase activity”. Further, the “hpol η percent activity relative to the control assay” value on hpol η [1] (50 μM compound) is “dramatic improvement in activity”. The “polymerase activity at increasing concentrations of inhibitor, gel-based analysis” value at hpol η [2] is “dose-dependent decrease in polymerase activity”. Further, the catalytic constant (kcat) amounted to 0.04 ± 0.0017 s⁻¹ on hpol η [3] (10 μM inhibitor), 0.05 ± 0.005 s⁻¹ on hpol η [3] (20 μM inhibitor) and 0.0517 ± 0.0033 s⁻¹ on hpol η [3] (40 μM inhibitor). Besides, the mode of inhibition result at hpol η [3] (with respect to dTTP) is reported as “competitive”.
